US20230085307A1, “PYRIDAZINONE COMPOUND AND HERBICIDE” (NISSAN CHEMICAL CORPORATION, priority 2019, published 2023)

Experiments:
false cleavers [1] = assay: Test Example 5: herbicidal effect by foliage application, plastic box (Table 20, symbol Q); format: in vivo, false cleavers (Galium spurium); details: foliage application, 320 g/ha, three weeks after application
Method in brief: (§1)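 Sow seeds spot-wise in sterilized diluvial soil; cover with ~1.5 cm soil. Grow 14 days in greenhouse, 25° C. to 30° C. Spray foliage with emulsion diluted to predetermined amount. Rate effect after 3 weeks.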

velvetleaf [2] = assay: Test Example 5: herbicidal effect by foliage application, plastic box (Table 20, symbol M); format: in vivo, velvetleaf (Abutilon theophrasti); details: foliage application, 320 g/ha, three weeks after application
Method in brief: as §1

persian speedwell [3] = assay: Test Example 4: herbicidal effect by soil treatment (Table 19, symbol R); format: in vivo, Persian speedwell (Veronica persica); details: amount of applied herbicide 320 g/ha
Method in brief: (§2)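 Soil-surface application: an emulsion agent diluted with water to the predetermined dose is sprayed uniformly over seeds lying under roughly 1.5 cm of sterilized diluvial soil. Boxes stay in a greenhouse at 25° C. to 30° C. Three weeks later, each species is graded on previously defined criteria.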

Italian ryegrass [4] = assay: Test Example 5: herbicidal effect by foliage application, plastic box (Table 20, symbol K); format: in vivo, Italian ryegrass (Lolium multiflorum); details: foliage application, 320 g/ha, three weeks after application
Method in brief: as §1

chickweed [5] = assay: Test Example 4: herbicidal effect by soil treatment (Table 19, symbol P); format: in vivo, common chickweed (Stellaria media); details: amount of applied herbicide 320 g/ha
Method in brief: as §2

wild oat [6] = assay: Test Example 4: herbicidal effect by soil treatment (Table 19, symbol I); format: in vivo, wild oat (Avena fatua); details: amount of applied herbicide 320 g/ha
Method in brief: as §2

chickweed [7] = assay: Test Example 5: herbicidal effect by foliage application, plastic box (Table 20, symbol P); format: in vivo, common chickweed (Stellaria media); details: foliage application, 320 g/ha, three weeks after application
Method in brief: as §1

velvetleaf [8] = assay: Test Example 4: herbicidal effect by soil treatment (Table 19, symbol M); format: in vivo, velvetleaf (Abutilon theophrasti); details: amount of applied herbicide 320 g/ha
Method in brief: as §2

redroot pigweed [9] = assay: Test Example 5: herbicidal effect by foliage application, plastic box (Table 20, symbol N); format: in vivo, redroot pigweed (Amaranthus retroflexus); details: foliage application, 320 g/ha, three weeks after application
Method in brief: as §1

southern crabgrass [10] = assay: Test Example 4: herbicidal effect by soil treatment (Table 19, symbol F); format: in vivo, southern crabgrass (Digitaria ciliaris); details: amount of applied herbicide 320 g/ha
Method in brief: as §2

blackgrass [11] = assay: Test Example 4: herbicidal effect by soil treatment (Table 19, symbol J); format: in vivo, blackgrass (Alopecurus myosuroides); details: amount of applied herbicide 320 g/ha
Method in brief: as §2

lambsquarters [12] = assay: Test Example 5: herbicidal effect by foliage application, plastic box (Table 20, symbol O); format: in vivo, lambsquarters (Chenopodium album); details: foliage application, 320 g/ha, three weeks after application
Method in brief: as §1

windgrass [13] = assay: Test Example 5: herbicidal effect by foliage application, plastic box (Table 20, symbol L); format: in vivo, windgrass (Apera spica-venti); details: foliage application, 320 g/ha, three weeks after application
Method in brief: as §1

southern crabgrass [14] = assay: Test Example 5: herbicidal effect by foliage application, plastic box (Table 20, symbol F); format: in vivo, southern crabgrass (Digitaria ciliaris); details: foliage application, 320 g/ha, three weeks after application
Method in brief: as §1

blackgrass [15] = assay: Test Example 5: herbicidal effect by foliage application, plastic box (Table 20, symbol J); format: in vivo, blackgrass (Alopecurus myosuroides); details: foliage application, 320 g/ha, three weeks after application
Method in brief: as §1

barnyard grass [16] = assay: Test Example 4: herbicidal effect by soil treatment (Table 19, symbol H); format: in vivo, barnyard grass (Echinochloa crus-galli); details: amount of applied herbicide 320 g/ha
Method in brief: as §2

Chinese sprangletop = assay: Test Example 3: herbicidal effect by foliage application, Wagner pot (Table 18, symbol D); format: in vivo, chinese sprangletop (Leptochloa chinensis)
Method in brief: (§3)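 Plants were sown in alluvial soil held under 0.1–0.5 cm standing water and grown 14 days in a greenhouse at 25–30 °C. An emulsifiable formulation, water-diluted to the set dose, was then sprayed onto the foliage, and effects were scored three weeks later using previously defined criteria.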

false cleavers [17] = assay: Test Example 4: herbicidal effect by soil treatment (Table 19, symbol Q); format: in vivo, false cleavers (Galium spurium); details: amount of applied herbicide 320 g/ha
Method in brief: as §2

redroot pigweed [18] = assay: Test Example 4: herbicidal effect by soil treatment (Table 19, symbol N); format: in vivo, redroot pigweed (Amaranthus retroflexus); details: amount of applied herbicide 320 g/ha
Method in brief: as §2

green foxtail [19] = assay: Test Example 4: herbicidal effect by soil treatment (Table 19, symbol G); format: in vivo, green foxtail (Setaria viridis); details: amount of applied herbicide 320 g/ha
Method in brief: as §2

wild oat [20] = assay: Test Example 5: herbicidal effect by foliage application, plastic box (Table 20, symbol I); format: in vivo, wild oat (Avena fatua); details: foliage application, 320 g/ha, three weeks after application
Method in brief: as §1

persian speedwell [21] = assay: Test Example 5: herbicidal effect by foliage application, plastic box (Table 20, symbol R); format: in vivo, Persian speedwell (Veronica persica); details: foliage application, 320 g/ha, three weeks after application
Method in brief: as §1

Italian ryegrass [22] = assay: Test Example 4: herbicidal effect by soil treatment (Table 19, symbol K); format: in vivo, Italian ryegrass (Lolium multiflorum); details: amount of applied herbicide 320 g/ha
Method in brief: as §2

rice flat sedge = assay: Test Example 3: herbicidal effect by foliage application, Wagner pot (Table 18, symbol E); format: in vivo, rice flat sedge (Cyperus iria)
Method in brief: as §3

green foxtail [23] = assay: Test Example 5: herbicidal effect by foliage application, plastic box (Table 20, symbol G); format: in vivo, green foxtail (Setaria viridis); details: foliage application, 320 g/ha, three weeks after application
Method in brief: as §1

barnyard grass [24] = assay: Test Example 5: herbicidal effect by foliage application, plastic box (Table 20, symbol H); format: in vivo, barnyard grass (Echinochloa crus-galli); details: foliage application, 320 g/ha, three weeks after application
Method in brief: as §1

barnyard grass [25] = assay: Test Example 3: herbicidal effect by foliage application, Wagner pot (Table 18, symbol H); format: in vivo, barnyard grass (Echinochloa crus-galli)
Method in brief: as §3

lambsquarters [26] = assay: Test Example 4: herbicidal effect by soil treatment (Table 19, symbol O); format: in vivo, lambsquarters (Chenopodium album); details: amount of applied herbicide 320 g/ha
Method in brief: as §2

windgrass [27] = assay: Test Example 4: herbicidal effect by soil treatment (Table 19, symbol L); format: in vivo, windgrass (Apera spica-venti); details: amount of applied herbicide 320 g/ha
Method in brief: as §2

[28] = amount of applied herbicide 320 g/ha

SMILES | Q: false cleavers, herbicidal effect grade (false cleavers [1]) | M: velvetleaf, herbicidal effect grade (velvetleaf [2]) | R: persian speedwell, herbicidal effect grade (persian speedwell [3]) | K: Italian ryegrass, herbicidal effect grade (Italian ryegrass [4]) | P: chickweed, herbicidal effect grade (chickweed [5]) | I: wild oat, herbicidal effect grade (wild oat [6]) | P: chickweed, herbicidal effect grade (chickweed [7]) | M: velvetleaf, herbicidal effect grade (velvetleaf [8]) | N: redroot pigweed, herbicidal effect grade (redroot pigweed [9]) | F: southern crabgrass, herbicidal effect grade (southern crabgrass [10]) | J: blackgrass, herbicidal effect grade (blackgrass [11]) | O: lambsquarters, herbicidal effect grade (lambsquarters [12]) | L: windgrass, herbicidal effect grade (windgrass [13]) | F: southern crabgrass, herbicidal effect grade (southern crabgrass [14]) | J: blackgrass, herbicidal effect grade (blackgrass [15]) | H: barnyard grass, herbicidal effect grade (barnyard grass [16]) | Q: false cleavers, herbicidal effect grade (false cleavers [17]) | N: redroot pigweed, herbicidal effect grade (redroot pigweed [18]) | G: green foxtail, herbicidal effect grade (green foxtail [19]) | I: wild oat, herbicidal effect grade (wild oat [20]) | other results
CCCC(=O)Oc1c(C)nn(C)c(=O)c1-c1c(-c2ccc(F)cc2)sc2cc(Cl)ccc12 [3-032] | 0 (Herbicidal rate of 5% or less (almost no effect)) | 4 (Herbicidal rate of 70% or more and less than 90%) | 5 (Herbicidal rate of 90% or more (almost completely withered)) | 4 (Herbicidal rate of 70% or more and less than 90%) | 4 (Herbicidal rate of 70% or more and less than 90%) | 0 (Herbicidal rate of 5% or less (almost no effect)) | 5 (Herbicidal rate of 90% or more (almost completely withered)) | 0 (Herbicidal rate of 5% or less (almost no effect)) | 5 (Herbicidal rate of 90% or more (almost completely withered)) | 0 (Herbicidal rate of 5% or less (almost no effect)) | 0 (Herbicidal rate of 5% or less (almost no effect)) | 4 (Herbicidal rate of 70% or more and less than 90%) | 5 (Herbicidal rate of 90% or more (almost completely withered)) | 4 (Herbicidal rate of 70% or more and less than 90%) | 4 (Herbicidal rate of 70% or more and less than 90%) | 0 (Herbicidal rate of 5% or less (almost no effect)) | 3 (Herbicidal rate of 40% or more and less than 70%) | 4 (Herbicidal rate of 70% or more and less than 90%) | 0 (Herbicidal rate of 5% or less (almost no effect)) | 5 (Herbicidal rate of 90% or more (almost completely withered)) | herbicidal effect on D: Chinese sprangletop (Chinese sprangletop; [28]): 3 (Herbicidal rate of 40% or more and less than 70%); R: persian speedwell, herbicidal effect grade (persian speedwell [21]): 5 (Herbicidal rate of 90% or more (almost completely withered)); K: Italian ryegrass, herbicidal effect grade (Italian ryegrass [22]): 0 (Herbicidal rate of 5% or less (almost no effect)); herbicidal effect on E: rice flat sedge (rice flat sedge; [28]): 3 (Herbicidal rate of 40% or more and less than 70%); G: green foxtail, herbicidal effect grade (green foxtail [23]): 4 (Herbicidal rate of 70% or more and less than 90%); H: barnyard grass, herbicidal effect grade (barnyard grass [24]): 4 (Herbicidal rate of 70% or more and less than 90%); herbicidal effect on H: barnyard grass (barnyard grass [25]; [28]): 5 (Herbicidal rate of 90% or more (almost completely withered)); O: lambsquarters, herbicidal effect grade (lambsquarters [26]): 4 (Herbicidal rate of 70% or more and less than 90%); L: windgrass, herbicidal effect grade (windgrass [27]): 3 (Herbicidal rate of 40% or more and less than 70%)
CCCC(=O)Oc1c(C)nn(C)c(=O)c1-c1c(-c2ccc(OC)cc2)sc2cc(Cl)ccc12 [3-038] | 0 (Herbicidal rate of 5% or less (almost no effect)) | 3 (Herbicidal rate of 40% or more and less than 70%) | 2 (Herbicidal rate of 20% or more and less than 40%) | 0 (Herbicidal rate of 5% or less (almost no effect)) | 1 (Herbicidal rate of 5% or more and less than 20%) | 0 (Herbicidal rate of 5% or less (almost no effect)) | 3 (Herbicidal rate of 40% or more and less than 70%) | 0 (Herbicidal rate of 5% or less (almost no effect)) | 1 (Herbicidal rate of 5% or more and less than 20%) | 0 (Herbicidal rate of 5% or less (almost no effect)) | 0 (Herbicidal rate of 5% or less (almost no effect)) | 3 (Herbicidal rate of 40% or more and less than 70%) | 0 (Herbicidal rate of 5% or less (almost no effect)) | 0 (Herbicidal rate of 5% or less (almost no effect)) | 0 (Herbicidal rate of 5% or less (almost no effect)) | 0 (Herbicidal rate of 5% or less (almost no effect)) | 0 (Herbicidal rate of 5% or less (almost no effect)) | 1 (Herbicidal rate of 5% or more and less than 20%) | 0 (Herbicidal rate of 5% or less (almost no effect)) | 0 (Herbicidal rate of 5% or less (almost no effect)) | herbicidal effect on Chinese sprangletop (D) (Chinese sprangletop; 320 g/ha): 1 (Herbicidal rate of 5% or more and less than 20%); R: persian speedwell, herbicidal effect grade (persian speedwell [21]): 3 (Herbicidal rate of 40% or more and less than 70%); K: Italian ryegrass, herbicidal effect grade (Italian ryegrass [22]): 0 (Herbicidal rate of 5% or less (almost no effect)); herbicidal effect on rice flat sedge (E) (rice flat sedge; 320 g/ha): 3 (Herbicidal rate of 40% or more and less than 70%); G: green foxtail, herbicidal effect grade (green foxtail [23]): 0 (Herbicidal rate of 5% or less (almost no effect)); H: barnyard grass, herbicidal effect grade (barnyard grass [24]): 0 (Herbicidal rate of 5% or less (almost no effect)); herbicidal effect on barnyard grass (H) (barnyard grass [25]; 320 g/ha): 3 (Herbicidal rate of 40% or more and less than 70%); O: lambsquarters, herbicidal effect grade (lambsquarters [26]): 3 (Herbicidal rate of 40% or more and less than 70%); L: windgrass, herbicidal effect grade (windgrass [27]): 0 (Herbicidal rate of 5% or less (almost no effect))
